Laboratory results published in patent publication US20230263900A1, “DENDRIMER-DRUG CONJUGATE” (priority 2020, published 2023).
Where two headings read alike, the source gives them in different places.

Experiments:
[1] = cited from earlier work
[2] = Solubility studies; format: physicochemical
Description: The solubility of BHALys[Lys]2[Lys]4[Lys]8[Lys]16[Lys]32[(α-NH-3′ O-Glu-Remdesivir)32(ε-NH-COPEG2000)32] RHa-3 in water was determined to be ≥200 mg/mL (or ≥43.6 mg/mL Remdesivir RHa-1) by adding water (250 μL) to 50.0 mg of BHALys [Lys]2[Lys]4[Lys]8[Lys]16[Lys]32[(α-NH-3′ O-Glu-Remdesivir)32(ε-NH-COPEG2000)32] and swirling briefly. After 2 min, the resulting solution was visually inspected for particulates and found to be a clear solution (see FIG. 2). Solutions shown are 40 mg/ml Remdesivir equivalents (equivalent to 200 mg/ml of conjugate RHa-3).
The solubility of BHALys[Lys]2[Lys]4[Lys]8[Lys]16[Lys]32[(α-NH-6N-TDA-Remdesivir)32(ε-NH-COPEG2000)32] RHa-5, in EtOH:Water (1:9 v/v) was determined to be ≥543 mg/mL (or ≥107 mg/mL Remdesivir RHa-1) by adding water EtOH:Water (1:9 v/v, 400 μL) to 380 mg of RHa-5. The mixture was swirled briefly and left to stand at rt. After 1.5 h the resulting solution (volume recorded=700 μL) was visually inspected for particulates and found to be a clear solution.
The solubility of BHALys[Lys]2[Lys]4[Lys]8[Lys]16[Lys]32[(α-NH-6N-TDA-Remdesivir)32(ε-NH-COPEG1000)32] RHa-17 in EtOH:Water (1:9 v/v) was determined to be ≥354* mg/mL (or ≥85 mg/mL Remdesivir RHa-1) by adding EtOH:Water (1:9 v/v, 958 μL) portionwise to 525 mg of RHa-17, over a period of 1.5 h with intermittent swirling. The resulting solution was visually inspected for particulates and found to be a clear solution.
(*Total volume not recorded. Assumes 1 mg construct contributes to 1 μL of final solution (i.e., total volume of final solution=1483 μL)).

[3] = tested on: Coronavirus infection; conditions: cited from earlier work
[4] = Release of Remdesivir in PBS buffer (Release Method 1); format: physicochemical; conditions: PBS buffer with 10% v/v DMSO, pH 7.4, 37° C.
Description: Release Method 1: An accurately weighed amount of the Remdesivir-dendrimer (10 mg) construct was dissolved in pH 7.4 PBS buffer:DMSO (9:1 v/v) and the volume made up to 20.0 mL in a volumetric flask to give a 0.5 mg/mL stock solution. The stock solution was aliquoted into several 2 mL screw-cap vials, the caps fitted and the vials heated at 37° C. The aliquoted solutions were analyzed at different time points by HPLC (HPLC Method 3). The concentration of Remdesivir RHa-1 was calculated by comparing the area under the peak associated with Remdesivir RHa-1 to a standard curve in MeCN:DMSO (9:1, v/v). The percentage of Remdesivir RHa-1 released is the percentage of available Remdesivir RHa-1 based on the loading of the construct as determined by ^1H NMR analysis (API Loading Method 1).
The extent to which the Remdesivir RHa-1 was released over time in PBS buffer (with 10% v/v DMSO) (pH 7.4) at 37° C. was determined for 5 constructs, RHa-17, RHa-15, RHa-11, RHa-5 and RHa-3 (Release Method 1) over 120 hours.
Trace amounts of other components were also observed (presumed to be degradation products of Remdesivir RHa-1). The area under the resolvable (separated) peaks associated with these degradants was also added to the peak area associated with released Remdesivir RHa-1.
BHALys [Lys]2[Lys]4[Lys]8[Lys]16[Lys]32[(α-NH-6N-TDA-Remdesivir)32(ε-NH-COPEG2000)32] RHa-5 contained 1.77% free Remdesivir RHa-1 at t=0 min. The value of released Remdesivir RHa-1 shown in FIG. 3 has been adjusted to take this into account.

[5] = Viscosity measurements (Viscosity Method 1); format: physicochemical; conditions: 50 mg/mL Remdesivir equivalents in EtOH: Water (1:9 v/v)
Description: Viscosities were measured on Anton Paar ViscoQC300 Viscometer using CC-12 cup.
Viscosity Method 1: A reference standard solution (Standard Type: RT500, CAS No. 63148-62-9, Paragon Scientific Ltd) was first recorded and found to be within the range of reported value (at 20° C.: found 556.6 cP, theoretical 551.0 cP; at 25° C.: found 503.3 cP, theoretical 498.6 cP). Accurately weighed quantities of respective conjugates were dissolved in EtOH:Water […] to make a 50 mg/mL Remdesivir equivalent solution (total volume 2.30-2.40 mL) and the viscosity of the solution was recorded at 20° C. and 25° C.
Viscosities of 2 formulations containing either RHa-5 or RHa-17 in EtOH: Water (1:9 v/v) were measured using Viscosity Method 1

For CCC(CC)COC(=O)[C@H](C)N[P@](=O)(OC[C@H]1O[C@@](C#N)(c2ccc3c(N)ncnn23)[C@H](O)[C@@H]1O)Oc1ccccc1 [RDV, 2-Ethylbutyl (2S)-2-{[(S)-{[(2R,3S,4R,5R)-5-(4-aminopyrrolo[2,1-f][1,2,4]triazin-7-yl)-5-cyano-3,4-dihydroxytetrahydrofuran-2-yl]methoxy}(phenoxy)phosphoryl]amino}propanoate], the Cmax ([1]; after 200 mg dose of Remdesivir) is listed as 5.44 µg/mL, the Median terminal half-life ([1]; human, in vivo) is listed as “approximately 1 hours” and the Plasma half-life ([1]; in vivo, iv) is listed as “approximately 1 hour”. For the same compound, the “Appearance in water at 40 mg/mL” value ([2]; water, 40 mg/mL, FIG. 2) was “suspension”, the “Clinical recovery, figure in parentheses (share of patients)” value ([3]; 5-Day RDV, n = 200, Day 14) was “(65)” and the “Clinical recovery, patients” value ([3]; 5-Day RDV, n = 200, Day 14) was 129. For the same compound, the “Death, figure in parentheses (share of patients)” value ([3]; 5-Day RDV, n = 200, Day 14) was “(8)”, the “Death, patients” value ([3]; 5-Day RDV, n = 200, Day 14) was 16 and the “Discharge, figure in parentheses (share of patients)” value ([3]; 5-Day RDV, n = 200, Day 14) was “(60)”. The “Discharge, patients” value ([3]; 5-Day RDV, n = 200, Day 14) was 120, the “≥ 2-point improvement in ordinal scale, figure in parentheses (share of patients)” value ([3]; 5-Day RDV, n = 200, Day 14) was “(65)” and the “≥ 2-point improvement in ordinal scale, patients” value ([3]; 5-Day RDV, n = 200, Day 14) was 129. The “AE leading to discontinuation, figure in parentheses (share of patients)” value ([3]; 5-Day RDV, n = 200) was “(5)”, the “AE leading to discontinuation, patients” value ([3]; 5-Day RDV, n = 200) was 9 and the “Any adverse event (AE), figure in parentheses (share of patients)” value ([3]; 5-Day RDV, n = 200) was “(71)”. For the same compound, the “Any adverse event (AE), patients” value ([3]; 5-Day RDV, n = 200) was 141, the “Grade ≥ 3 study drug-related AE, figure in parentheses (share of patients)” value ([3]; 5-Day RDV, n = 200) was “(4)” and the “Grade ≥ 3 study drug-related AE, patients” value ([3]; 5-Day RDV, n = 200) was 8. The “Study drug-related serious adverse event (SAE), figure in parentheses (share of patients)” value ([3]; 5-Day RDV, n = 200) was “(2)”, the “Study drug-related serious adverse event (SAE), patients” value ([3]; 5-Day RDV, n = 200) was 3 and the “Time to clinical improvement for 50% of patients” value ([3]; 5-day treatment group) was 10 days. For the same compound, the “Clinical recovery, figure in parentheses (share of patients)” value ([3]; 10-Day RDV, n = 197, Day 14) was “(54)”, the “Clinical recovery, patients” value ([3]; 10-Day RDV, n = 197, Day 14) was 106 and the “Death, figure in parentheses (share of patients)” value ([3]; 10-Day RDV, n = 197, Day 14) was “(11)”. The “Death, patients” value ([3]; 10-Day RDV, n = 197, Day 14) was 21, the “Discharge, figure in parentheses (share of patients)” value ([3]; 10-Day RDV, n = 197, Day 14) was “(52)” and the “Discharge, patients” value ([3]; 10-Day RDV, n = 197, Day 14) was 103. The “≥ 2-point improvement in ordinal scale, figure in parentheses (share of patients)” value ([3]; 10-Day RDV, n = 197, Day 14) was “(54)”, the “≥ 2-point improvement in ordinal scale, patients” value ([3]; 10-Day RDV, n = 197, Day 14) was 107 and the “AE leading to discontinuation, figure in parentheses (share of patients)” value ([3]; 10-Day RDV, n = 197) was “(10)”. For the same compound, the “AE leading to discontinuation, patients” value ([3]; 10-Day RDV, n = 197) was 20, the “Any adverse event (AE), figure in parentheses (share of patients)” value ([3]; 10-Day RDV, n = 197) was “(74)” and the “Any adverse event (AE), patients” value ([3]; 10-Day RDV, n = 197) was 145. The “Grade ≥ 3 study drug-related AE, figure in parentheses (share of patients)” value ([3]; 10-Day RDV, n = 197) was “(5)”, the “Grade ≥ 3 study drug-related AE, patients” value ([3]; 10-Day RDV, n = 197) was 10 and the “Study drug-related serious adverse event (SAE), figure in parentheses (share of patients)” value ([3]; 10-Day RDV, n = 197) was “(2)”. For the same compound, the “Study drug-related serious adverse event (SAE), patients” value ([3]; 10-Day RDV, n = 197) was 4 and the “Time to clinical improvement for 50% of patients” value ([3]; 10-day treatment group) was 11 days.
In the case of “BHALys[Lys]2[Lys]4[Lys]8[Lys]16[Lys]32[(α-NH-3′O-TDA-Remdesivir)32(ε-NH-COPEG2000)32] [RHa-15]”, the “Approx. Time taken for 50% Remdesivir release” value [4] is reported as ~9 h.
In the case of “BHALys[Lys]2[Lys]4[Lys]8[Lys]16[Lys]32[(α-NH-6N-TDA-Remdesivir)32(ε-NH-COPEG2000)32] [RHa-5]”, the “Solubility in EtOH:Water (1:9 v/v)” value ([2]; EtOH:Water (1:9 v/v), conjugate mass, rt) is reported as ≥ 543 mg/mL, the “Solubility in EtOH:Water (1:9 v/v), as Remdesivir RHa-1” value ([2]; EtOH:Water (1:9 v/v), expressed as Remdesivir RHa-1) is reported as ≥ 107 mg/mL and the “Viscosity at 20° C.” value [5] is reported as 144.2 cP. For the same compound, the “Viscosity at 25° C.” value [5] was 100.6 cP and the “Approx. Time taken for 50% Remdesivir release” value [4] was ~58 h.
